{"source": "patent US20240199882A1", "about": "“THIENYL-DIBENZOAZEPINES AND THEIR DERIVATIVES AS DONORS FOR XANTHENE-BASED SHORT-WAVE INFRARED (SWIR) DYES” (Mississippi State University, priority 2022, published 2024)", "key": {"[1]": {"assay": "Absorbance of DSPE-PEG encapsulated and co-encapsulated dyes", "format": "physicochemical", "conditions": "co-encapsulated in DSPE-PEG (rNP-NO) versus separate", "description": "The SCR-NO and IR-1061 were encapsulated using DSPE-PEG (a common phospholipids-polymer conjugate) to give NP-SCR-NO and NP-IR-1061, respectively. […] However, when the components were co-encapsulated (rNP-NO, ratiometric NP for NO), there was observed a favorable ˜100 nm red-shift of the SCR-NO λabs into the SWIR region (FIG. 3A). The corresponding change for IR-1061 was minimal (1 nm)."}, "[2]": {"assay": "Photophysical properties of the dyes in dichloromethane", "format": "physicochemical", "conditions": "for QY / Stokes Shift / ε / λabs / λem: in dichloromethane (DCM)", "description": "The quantum yield (QY) of the dyes decreased as the absorption wavelength increased, which is common to these dyes."}}, "data": [{"smiles": "ClC1=C(/C=C/c2cc(-c3ccccc3)[s+]c(-c3ccccc3)c2)CCC/C1=C/C=C1C=C(c2ccccc2)SC(c2ccccc2)=C1.F[B-](F)(F)F", "note": "[IR-1061]", "values": [{"measurement": "red-shift / change of λabs", "setting": "[1]", "result": 1, "unit": "nm"}]}, {"smiles": "CCOC(=O)c1ccccc1C1=c2cc/c(=C3/C=CC(=[N+]4c5ccccc5C=Cc5ccccc54)S3)cc2Oc2cc(-c3ccc(N4c5ccccc5C=Cc5ccccc54)s3)ccc21", "note": "[SCR-1]", "values": [{"measurement": "absorption maxima", "setting": "[2]", "result": 840}, {"measurement": "PA brightness value (EC×(1−QY))", "setting": "[2]; calculated value", "result": 82800, "unit": "M⁻¹ cm⁻¹"}, {"measurement": "QY", "setting": "[2]", "result": 0.31, "unit": "%"}, {"measurement": "Stokes Shift", "setting": "[2]", "result": 110}, {"measurement": "ε", "setting": "[2]", "result": "1.20 (M^−1cm^−1) × 10^5"}, {"measurement": "λabs", "setting": "[2]", "result": 840, "unit": "nm"}, {"measurement": "λem", "setting": "[2]", "result": 950, "unit": "nm"}]}, {"smiles": "CCOC(=O)c1ccccc1C1=c2cc/c(=c3/cc4c(s3)=CC(=[N+]3c5ccccc5C=Cc5ccccc53)S4)cc2Oc2cc(-c3cc4sc(N5c6ccccc6C=Cc6ccccc65)cc4s3)ccc21", "note": "[SCR-2]", "values": [{"measurement": "absorption maxima", "setting": "[2]", "result": 950}, {"measurement": "QY", "setting": "[2]", "result": 0.036, "unit": "%"}, {"measurement": "Stokes Shift", "setting": "[2]", "result": 150}, {"measurement": "ε", "setting": "[2]", "result": "1.24 (M^−1cm^−1) × 10^5"}, {"measurement": "λabs", "setting": "[2]", "result": 950, "unit": "nm"}, {"measurement": "λem", "setting": "[2]", "result": 1100, "unit": "nm"}]}, {"smiles": "CCOC(=O)c1ccccc1C1=c2cc/c(=c3/cc/c(=C4\\C=CC(=[N+]5c6ccccc6C=Cc6ccccc65)S4)s3)cc2Oc2cc(-c3ccc(-c4ccc(N5c6ccccc6C=Cc6ccccc65)s4)s3)ccc21", "note": "[SCR-3]", "values": [{"measurement": "absorption maxima", "setting": "[2]", "result": 1040}, {"measurement": "QY", "setting": "[2]", "result": 0.016, "unit": "%"}, {"measurement": "Stokes Shift", "setting": "[2]", "result": 220}, {"measurement": "ε", "setting": "[2]", "result": "0.80 (M^−1cm^−1) × 10^5"}, {"measurement": "λabs", "setting": "[2]", "result": 1040, "unit": "nm"}, {"measurement": "λem", "setting": "[2]", "result": 1260, "unit": "nm"}]}]}
